Measured values from patent publication US11596611B2, “Hepatitis B antiviral agents” (ENANTA PHARMACEUTICALS, INC., priority 2017, dated 2023).

System: not listed separately
Assay: Compound toxicity by ATPLite (total ATP levels)
Assay type: cell-based
Settings: human; three days after compound addition; 50% reduction of total ATP; class symbols
Experimental: Methods: HepAD38 cells are maintained as previously reported (Ladner et al, Antimicrob. Agents Chemother. 1997, […], 1715). Briefly, cells are passaged upon attaining confluency in DMEM/F12 media in the presence of 10% FBS, Penn/Strep, 250 μg/mL G418, and 1 ug/ml tetracycline. Novel compounds are screened by first washing cells three times with PBS to remove tetracycline, and plating in 96 well plates at 35,000 cells/well. Compounds dissolved in DMSO are then diluted 1:200 into wells containing cells. Five days after compound addition, material is harvested for analysis. For an extended 8 days analysis, cells are plated and treated as described above, but media and compound are refreshed on d2 and d5 post initial treatment.
Compound toxicity is evaluated by seeding cells at 15,000 cells/well and treating with compound as described above.

SMILES	CC50 at 3 days [nM]
COC[C@@H](O)COC[C@]1(O)C2CCC1C[C@@H](S(=O)(=O)c1cc(C(=O)Nc3cc(F)c(F)c(F)c3)ccc1Cl)C2 [Example 122]	> 25000
O=C(Nc1ccc(F)c(F)c1)c1ccc(Cl)c(S(=O)(=O)[C@H]2CC3CCC(C2)[C@]3(O)C(O)c2ccc(F)cn2)c1 (stereo partly drawn) [Example 291]	> 25000

Same assay, conditions: human; three days after compound addition; 50% reduction of total ATP; numeric bounds

SMILES	CC50 at 3 days [nM]
C[C@H](O)COC[C@]1(O)C2CCC1C[C@@H](S(=O)(=O)c1cc(C(=O)Nc3cc(F)c(F)c(F)c3)ccc1Cl)C2 [Example 131]	> 12500
O=C(Nc1cc(F)c(F)c(F)c1)c1ccc(Cl)c(S(=O)(=O)[C@H]2CC3CCC(C2)[C@]3(O)CNC(=O)C2CCOCC2)c1 [Example 89]	> 6250
O=C(NC[C@@]1(O)C2CC[C@H]1C[C@H](S(=O)(=O)c1cc(C(=O)Nc3cc(F)c(F)c(F)c3)ccc1Cl)C2)C1=CCCC1 [Example 41]	> 6250
C[C@@H](O)COC[C@]1(O)C2CCC1C[C@@H](S(=O)(=O)c1cc(C(=O)Nc3ccc(F)c(F)c3)ccc1Cl)C2 [Example 177]	> 6250
C[C@H](O)COC[C@]1(O)C2CCC1C[C@@H](S(=O)(=O)c1cc(C(=O)Nc3ccc(F)c(F)c3)ccc1Cl)C2 [Example 176]	> 6250

System: HBV
Assay: HepAD38 antiviral assay: reduction of viral product accumulation (virion DNA by qPCR, HBsAg or HBeAg by ELISA)
Assay type: cell-based, hepatitis B virus
Settings: Hepatitis B virus, 120 h; HepAD38 cells, five days after compound addition; 50% reduction of viral product vs no drug controls; read-out: HepAD38 EC50
Summary of the method: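 Readouts were qPCR of lysed virion DNA plus ELISA for HBsAg or HBeAg, samples diluted into linear range. HepAD38 cells, washed free of tetracycline, received compound diluted 1:200 from DMSO for 5 days; 8-day variant refreshed media and compound on days 2 and 5.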

SMILES	EC50 [µM]
C[C@H](O)COC[C@]1(O)C2CCC1C[C@@H](S(=O)(=O)c1cc(C(=O)Nc3cc(F)c(F)c(F)c3)ccc1Cl)C2 [Example 131]	< 0.104
O=C(Nc1cc(F)c(F)c(F)c1)c1ccc(Cl)c(S(=O)(=O)[C@H]2CC3CCC(C2)[C@]3(O)CNC(=O)C2CCOCC2)c1 [Example 89]	< 0.104
O=C(NC[C@@]1(O)C2CC[C@H]1C[C@H](S(=O)(=O)c1cc(C(=O)Nc3cc(F)c(F)c(F)c3)ccc1Cl)C2)C1=CCCC1 [Example 41]	< 0.104
C[C@@H](O)COC[C@]1(O)C2CCC1C[C@@H](S(=O)(=O)c1cc(C(=O)Nc3ccc(F)c(F)c3)ccc1Cl)C2 [Example 177]	< 0.104
COC[C@@H](O)COC[C@]1(O)C2CCC1C[C@@H](S(=O)(=O)c1cc(C(=O)Nc3cc(F)c(F)c(F)c3)ccc1Cl)C2 [Example 122]	< 0.104
O=C(Nc1ccc(F)c(F)c1)c1ccc(Cl)c(S(=O)(=O)[C@H]2CC3CCC(C2)[C@]3(O)C(O)c2ccc(F)cn2)c1 (stereo partly drawn) [Example 291]	< 0.104
C[C@H](O)COC[C@]1(O)C2CCC1C[C@@H](S(=O)(=O)c1cc(C(=O)Nc3ccc(F)c(F)c3)ccc1Cl)C2 [Example 176]	< 0.104
CC(C)(C1CCC(F)(F)CC1)S(=O)(=O)c1cc(C(=O)Nc2ccc(F)c(F)c2)ccc1Cl [Example 232]	> 0.2
O=C(Nc1ccc(F)c(F)c1)c1ccc(Cl)c(S(=O)(=O)C2CC(C(=O)NCCCO)C2)c1 (stereo not drawn) [Example 258]	> 0.2
COC(=O)[C@H](C)NC(=O)C1CC(S(=O)(=O)c2cc(C(=O)Nc3ccc(F)c(F)c3)ccc2Cl)C1 (stereo partly drawn) [Example 255]	> 0.2
COC[C@@H](C)NC(=O)C[C@]1(O)C2CCC1C[C@@H](S(=O)(=O)c1cc(C(=O)Nc3cc(F)c(F)c(F)c3)ccc1Cl)C2 [Example 115]	< 0.104
NC(=O)C[C@H](N)C(=O)NC[C@]1(O)C2CCC1C[C@@H](S(=O)(=O)c1cc(C(=O)Nc3cc(F)c(F)c(F)c3)ccc1Cl)C2 [Example 27]	> 0.2
C[C@]1(O)C2CCC1C[C@@H](S(=O)(=O)c1cc(C(=O)Nc3ccc(F)c(O)c3)ccc1Cl)C2 [Example 134]	> 0.2
CC(C)(O)C(O)CNC(=O)[C@@]1(O)C2CC[C@H]1C[C@H](S(=O)(=O)c1cc(C(=O)Nc3cc(F)c(F)c(F)c3)ccc1Cl)C2 (stereo partly drawn) [Example 148]	0.1 to 0.2
O=C(Nc1cc(F)c(F)c(F)c1)c1ccc(Cl)c(S(=O)(=O)[C@H]2CC3CCC(C2)[C@]3(O)CO[C@H]2C[C@@H](O)[C@@H](O)C2)c1 [Example 34]	< 0.104
NS(=O)(=O)OC[C@]1(O)CC2CC[C@@H](C1)[C@H]2S(=O)(=O)c1cc(C(=O)Nc2cc(F)c(F)c(F)c2)ccc1Cl [Example 3]	< 0.104
O=C(Nc1ccc(F)c(F)c1)c1ccc(Cl)c(S(=O)(=O)[C@H]2CC3CCC(C2)[C@]3(O)C(O)c2ccc(F)c[n+]2[O-])c1 (stereo partly drawn) [Example 292]	> 0.2
COC(=O)N1CC[C@@H](O)[C@H]1C(=O)NC[C@]1(O)C2CCC1C[C@@H](S(=O)(=O)c1cc(C(=O)Nc3cc(F)c(F)c(F)c3)ccc1Cl)C2 [Example 78]	> 0.2
C[C@H](O)[C@@H](O)COC[C@]1(O)C2CCC1C[C@@H](S(=O)(=O)c1cc(C(=O)Nc3cc(F)c(F)c(F)c3)ccc1Cl)C2 (single isomer, unassigned) [Example 164]	< 0.104
O=C(Nc1ccc(F)c(F)c1)c1ccc(Cl)c(S(=O)(=O)CC2CCC(O)(C(O)CO)CC2)c1 (stereo not drawn) [Example 199]	> 0.2
O=C(Nc1cc(F)c(F)c(F)c1)c1ccc(Cl)c(S(=O)(=O)[C@H]2CC3CCC(C2)[C@]3(O)[C@H](O)[C@@H](O)CO)c1 [Example 42]	< 0.104
CC(O)[C@@]1(O)C2CC[C@H]1C[C@H](S(=O)(=O)c1cc(C(=O)Nc3cc(F)c(F)c(F)c3)ccc1Cl)C2 (mixture of isomers) [Example 210]	< 0.104
COC(=O)N[C@@H](CO)C(=O)NC[C@]1(O)C2CCC1C[C@@H](S(=O)(=O)c1cc(C(=O)Nc3cc(F)c(F)c(F)c3)ccc1Cl)C2 [Example 49]	> 0.2
O=C(O)CNC(=O)C[C@]1(O)C2CCC1C[C@@H](S(=O)(=O)c1cc(C(=O)Nc3cc(F)c(F)c(F)c3)ccc1Cl)C2 [Example 120]	> 0.2
CC1(C)O[C@H]2[C@H](CO[C@@H]2C(=O)NC[C@@]2(O)C3CC[C@H]2C[C@H](S(=O)(=O)c2cc(C(=O)Nc4cc(F)c(F)c(F)c4)ccc2Cl)C3)O1 [Example 28]	< 0.104
Cc1cc(Cl)c(S(=O)(=O)[C@H]2CC3CCC(C2)[C@@]3(C)O)cc1C(=O)Nc1ccc(F)c(F)c1 [Example 69]	< 0.104

SMILES	EC50 [µM]
O=C(Nc1ccc(F)c(F)c1)c1ccc(Cl)c(S(=O)(=O)C2CC(C(=O)O)C2)c1 (stereo not drawn) [Example 251]	> 0.2
C[C@H](O)COCC1(O)CCC(CS(=O)(=O)c2cc(C(=O)Nc3ccc(F)c(F)c3)ccc2Cl)CC1 (stereo partly drawn) [Example 198]	0.1 to 0.2
CC(C)(O)/C=C\[C@]1(O)C2CCC1C[C@@H](S(=O)(=O)c1cc(C(=O)Nc3cc(F)c(F)c(F)c3)ccc1Cl)C2 [Example 21]	< 0.104
COC(=O)N1C[C@H](O)C[C@H]1C(=O)NC[C@]1(O)C2CCC1C[C@@H](S(=O)(=O)c1cc(C(=O)Nc3cc(F)c(F)c(F)c3)ccc1Cl)C2 [Example 8]	> 0.2
C[C@]1(O)C2CCC1C[C@@H](S(=O)(=O)c1cccc(C(=O)Nc3cc(F)c(F)c(F)c3)c1)C2 [Example 37]	0.1 to 0.2
CC(C)(O)CC(=O)NC[C@]1(O)C2CCC1C[C@@H](S(=O)(=O)c1cc(C(=O)Nc3ccc(F)c(F)c3)ccc1Cl)C2 [Example 170]	< 0.104
COC(=O)NCCC(=O)NC[C@@]1(O)C2CC[C@H]1C[C@H](S(=O)(=O)c1cc(C(=O)Nc3cc(F)c(F)c(F)c3)ccc1Cl)C2 [Example 80]	< 0.104
CC(O)C[C@]1(O)CC[C@@H](CS(=O)(=O)c2cc(C(=O)Nc3ccc(F)c(F)c3)ccc2Cl)CC1 (stereo partly drawn) [Example 224]	0.1 to 0.2
O=C(Nc1cc(F)c(F)c(F)c1)c1ccc(Cl)c(S(=O)(=O)[C@H]2CC3CCC(C2)[C@]3(O)CC(=O)N2CC3(COC3)C2)c1 [Example 94]	< 0.104
O=C(O)CC1(O)CC(S(=O)(=O)c2cc(C(=O)Nc3ccc(F)c(F)c3)ccc2Cl)C1 (stereo not drawn) [Example 243]	> 0.2
O=C(Nc1cc(F)c(F)c(F)c1)c1ccc(Cl)c(S(=O)(=O)[C@H]2CC3CCC(C2)[C@]3(O)CNC(=O)[C@@H]2CCCO2)c1 (single isomer, unassigned) [Example 14]	< 0.104
O=C(Nc1cc(F)c(F)c(F)c1)c1ccc(Cl)c(S(=O)(=O)[C@@H]2CC3CC[C@@H](C2)[C@@]3(O)CNC(=O)C2CC=CC2)c1 [Example 22]	< 0.104
O=C(Nc1ccc(F)c(F)c1)c1ccc(Cl)c(S(=O)(=O)[C@H]2CC3CCC(C2)[C@]3(O)CNC(=O)C2CC(O)C2)c1 (stereo partly drawn) [Example 171]	> 0.2
C[C@]1(O)C2CCC1C[C@@H](S(=O)(=O)c1cc(C(=O)Nc3ccc(F)c(F)c3)c(-c3nccs3)cc1Cl)C2 [Example 157]	< 0.104
O=C(Nc1ccc(F)c(F)c1)c1ccc(Cl)c(S(=O)(=O)CC2CC=CCC2)c1 (stereo not drawn) [Example 227]	> 0.2
COC[C@]1(O)C2CCC1C[C@@H](S(=O)(=O)c1cc(C(=O)Nc3cc(F)c(F)c(F)c3)ccc1Cl)C2 [Example 123]	< 0.104
COC[C@H](C)NC(=O)C[C@]1(O)C2CCC1C[C@@H](S(=O)(=O)c1cc(C(=O)Nc3cc(F)c(F)c(F)c3)ccc1Cl)C2 [Example 118]	< 0.104
O=C(Nc1ccc(F)c(F)c1)c1ccc(Cl)c(S(=O)(=O)[C@@H]2CC3CC[C@@H](C2)[C@@]3(O)[C@H](O)c2cc(F)ccn2)c1 [Example 299]	< 0.104
O=C1CC[C@@H](C(=O)NC[C@]2(O)C3CCC2C[C@@H](S(=O)(=O)c2cc(C(=O)Nc4cc(F)c(F)c(F)c4)ccc2Cl)C3)N1 [Example 127]	> 0.2
C=CCC1(O)CC(S(=O)(=O)c2cc(C(=O)Nc3ccc(F)c(F)c3)ccc2Cl)C1 (stereo not drawn) [Example 239]	> 0.2
C[C@@]1(O)C2CC[C@H]1C[C@H](S(=O)(=O)c1cc(C(=O)Nc3ccc(F)c(C(F)(F)F)c3)ccc1Cl)C2 [Example 31]	0.1 to 0.2
O=C(Nc1ccc(F)c(F)c1)c1ccc(Cl)c(S(=O)(=O)[C@H]2CC3CCC(C2)[C@]3(O)C(O)c2cccnc2)c1 (stereo partly drawn) [Example 285]	< 0.104
COC(=O)NCCC(=O)N1C2CCC1CC(S(=O)(=O)c1cc(C(=O)Nc3cc(F)c(F)c(F)c3)ccc1Cl)C2 (stereo not drawn) [Example 147]	< 0.104
O=C(Nc1ccc(F)c(F)c1)c1ccc(Cl)c(S(=O)(=O)[C@@H]2CC3C[C@H](O)C(C2)[C@@]3(O)CO)c1 (stereo partly drawn) [Example 327]	0.1 to 0.2
O=C[C@]1(O)C2CCC1C[C@@H](S(=O)(=O)c1cc(C(=O)Nc3ccc(F)c(F)c3)ccc1Cl)C2 [Example 203]	< 0.104
CC(=O)C(=O)[C@@]1(O)C2CC[C@H]1C[C@H](S(=O)(=O)c1cc(C(=O)Nc3ccc(F)c(F)c3)ccc1Cl)C2 [Example 336]	< 0.104

Same assay, conditions: Hepatitis B virus, HePAD38, 120 h, read-out: HepAD38 EC50 (μM)

SMILES	EC50 [µM]
CC1(C)OC[C@H](CN2C3CCC2CC(S(=O)(=O)c2cc(C(=O)Nc4cc(F)c(F)c(F)c4)ccc2Cl)C3)O1 (single isomer, unassigned) [Example 144]	0.1 to 0.2
